tested on: HBeAg (surrogate marker for cccDNA) in HepDES19 cells; assay: Engineered HepDES19 primary screen assay (HBeAg ELISA); format: cell-based, HBV; settings: Hepatitis B virus, 120 h, HBeAg in culture supernatant, 5 days incubation, read-out: IC50 (HepDES19 primary screen assay, inhibition of extracellular HBeAg level)
Text: The assay was employed to screen for cccDNA inhibitors. HepDES19 is a cccDNA-producing cell line. In this cell line, HBeAg in the cell culture supernatant as surrogate marker, as HBeAg production depends on cccDNA level and activity. HepDES19 is an engineered cell line which contains a 1.1 unit length HBV genome, and pgRNA transcription from the transgene is controlled by Tetracycline (Tet). In the absence of Tet, pgRNA transcription will be induced, but HBV e antigen (HBeAg) could not be produced from this pgRNA due to very short leader sequence before the HBeAg start codon and the start codon is disrupted. Only after cccDNA is formed, the missing leader sequence and start codon mutation would be restored from the 3′-terminal redundancy of pgRNA, and then HBeAg could be synthesized. Therefore, HBeAg could be used as a surrogate marker for cccDNA (Zhou, T. et al., Antiviral Res. (2006), 72(2), 116-124; Guo, H. et al., J. Virol. (2007), 81(22), 12472-12484).
HepDES19 cells were seeded at 2×10^6 cells per T150 flask and cultured with the culture medium (Dulbecco's Modified Eagle Medium: Nutrient Mixture F-12 [DMEM-F12, Gibco Cat. 11320-82], 10% Fetal Bovine Serum [FBS, Clontech Cat. 631101], 0.1 mM Non-Essential Amino Acids Solution [NEAA, Gibco Cat. 11140-050], 50 μg/mL Penicillin-Streptomycin [PS, Invitrogen Cat. 15140-163], 500 μg/mL Geneticin [G418, Invitrogen Cat. 10131-027]) containing 3 μg/mL Tet (Sigma, Cat. 87128) for 5 days. Cells were then seeded at 4×10^6 cells per T150 in the same culture medium as described above in the absence of Tet for 8 days. Cells were then harvested and frozen at density of 2×10^6 cells per mL. For compound testing, the frozen cells were thawed and seeded into 96-well plates at a density of 6×10^4 cells per well. At 24 hours after seeding, half log serial dilutions of compounds made with Dimethyl sulfoxide (DMSO, Sigma, Cat. D2650) were further diluted with the same culture medium as described above before they were added to the cells to reach desired final compound concentrations and 1% DMSO concentration. Plates were then incubated at 37° C. for another 5 days before measurement of HBeAg level and cell viability. Intracellular HBeAg level were measured with enzyme-linked immunosorbent assay (ELISA) kit (Shanghai Kehua Diagnostic Medical Products Co., Ltd). Cell viability was assessed using Cell Counting Kit-8 (DonJindo, Cat. CK04-20). IC50 values were derived from the dose-response curve using 4 parameter logistic curve fit method.
The compounds of the present invention were tested for their capacity to inhibit extracellular HBeAg level as described herein.

In order of falling IC50:
1. CCOC(=O)C(=O)NCCOc1cc(OC)ccc1-c1cc(=O)c2cccc(Cl)c2o1 [Example 104]  9650 nM
2. O=C(NS(=O)(=O)C1CC1)[C@@H]1CCN(CCCOc2cc(C(F)(F)F)ccc2-c2cc(=O)c3cccc(Cl)c3o2)C1 [Example 067, (3R)-1-[3-[2-(8-chloro-4-oxo-chromen-2-yl)-5-(trifluoromethyl)phenoxy]propyl]-N-cyclopropylsulfonyl-pyrrolidine-3-carboxamide]  8400 nM
3. CC(C)[C@@H](NCCCOc1cc(C(F)(F)F)ccc1-c1cc(=O)c2cccc(Cl)c2o1)C(=O)O [Example 009, (2R)-2-[3-[2-(8-chloro-4-oxo-chromen-2-yl)-5-(trifluoromethyl)phenoxy]propylamino]-3-methyl-butanoic acid]  7470 nM
4. O=C(O)C1CC(NCCOc2cc(C(F)(F)F)ccc2-c2cc(=O)c3cccc(Cl)c3o2)C1 (stereo not shown) [Example 038, 3-[2-[2-(8-chloro-4-oxo-chromen-2-yl)-5-(trifluoromethyl)phenoxy]ethylamino]cyclobutanecarboxylic acid]  7240 nM
5. Cc1cc(-c2cc(=O)c3cccc(Cl)c3o2)c(OCCOCCN2CCC[C@@H]2C(=O)O)cc1Br [Example 048, (2R)-1-[2-[2-[5-bromo-2-(8-chloro-4-oxo-chromen-2-yl)-4-methyl-phenoxy]ethoxy]ethyl]pyrrolidine-2-carboxylic acid]  6680 nM
6. CCC(=O)NCCCOc1cc(C(F)(F)F)ccc1-c1cc(=O)c2cccc(Cl)c2o1 [Example 099]  6470 nM
7. Cc1cc(-c2cc(=O)c3cccc(Cl)c3o2)c(OCCN2CC(C(=O)O)C2)cc1Cl [Example 061, 1-[2-[5-chloro-2-(8-chloro-4-oxo-chromen-2-yl)-4-methyl-phenoxy]ethyl]azetidine-3-carboxylic acid]  5710 nM
8. Cc1cc(-c2cc(=O)c3cccc(Cl)c3o2)c(OCCN2CCC[C@@H]2C(=O)O)cc1Br [Example 044, (2R)-1-[2-[5-bromo-2-(8-chloro-4-oxo-chromen-2-yl)-4-methyl-phenoxy]ethyl]pyrrolidine-2-carboxylic acid]  4750 nM
9. Cc1ccc(-c2cc(=O)c3cccc(Cl)c3o2)c(OCCNS(N)(=O)=O)c1 [Example 161, 8-chloro-2-[4-methyl-2-[2-(sulfamoylamino)ethoxy]phenyl]-4-oxo-chromene]  4740 nM
10. Cc1cc(-c2cc(=O)c3cccc(Cl)c3o2)c(OCCCNC2CC(C(=O)O)C2)cc1Cl (stereo not shown) [Example 046, 3-[3-[5-chloro-2-(8-chloro-4-oxo-chromen-2-yl)-4-methyl-phenoxy]propylamino]cyclobutanecarboxylic acid]  4370 nM
11. O=C(O)C(CC1CCCCC1)NCCCOc1cc(C(F)(F)F)ccc1-c1cc(=O)c2cccc(Cl)c2o1 (stereo not shown) [Example 063, 2-[3-[2-(8-chloro-4-oxo-chromen-2-yl)-5-(trifluoromethyl)phenoxy]propylamino]-3-cyclohexyl-propanoic acid]  4320 nM
12. CCOC(=O)C(=O)NCCCOc1cc(C(F)(F)F)ccc1-c1cc(=O)c2cccc(Cl)c2o1 [Example 100, ethyl 2-[3-[2-(8-chloro-4-oxo-chromen-2-yl)-5-(trifluoromethyl)phenoxy]propylamino]-2-oxo-acetate]  3840 nM
13. CCOC(=O)C(=O)NCCOc1cc(C)ccc1-c1cc(=O)c2cc(OC)cc(Cl)c2o1 [Example 103]  3660 nM
14. CC(C)COc1ccc(-c2cc(=O)c3cccc(Cl)c3o2)c(OCCN2CC[C@@H](C(=O)O)C2)c1 [Example 039, (3R)-1-[2-[2-(8-chloro-4-oxo-chromen-2-yl)-5-isobutoxy-phenoxy]ethyl]pyrrolidine-3-carboxylic acid]  3480 nM
15. O=c1cc(-c2ccc(C(F)(F)F)cc2OCC(O)CNS(=O)(=O)C2CC2)oc2c(Cl)cccc12 (stereo not shown) [Example 086, N-[3-[2-(8-chloro-4-oxo-chromen-2-yl)-5-(trifluoromethyl)phenoxy]-2-hydroxy-propyl]cyclopropanesulfonamide]  3220 nM
16. CNS(=O)(=O)NCCCOc1cc(C)ccc1-c1cc(=O)c2cccc(Cl)c2o1 [Example 107]  2710 nM
17. O=C(O)C1CN(CCOc2cc(C(F)(F)F)ccc2-c2cc(=O)c3cccc(Cl)c3o2)CCO1 (stereo not shown) [Example 035, 4-[2-[2-(8-chloro-4-oxo-chromen-2-yl)-5-(trifluoromethyl)phenoxy]ethyl]morpholine-2-carboxylic acid]  2380 nM
18. O=C(O)[C@@H]1CCCN1CCCOc1cc(Br)ccc1-c1cc(=O)c2cccc(Cl)c2o1 [Example 004, (2S)-1-[3-[5-bromo-2-(8-chloro-4-oxo-chromen-2-yl)phenoxy]propyl]pyrrolidine-2-carboxylic acid]  2020 nM
19. COc1cc(C)cc(OCCNC(=O)C(=O)O)c1-c1cc(=O)c2cccc(Cl)c2o1 [Example 118]  1980 nM
20. Cc1ccc(-c2cc(=O)c3cccc(Cl)c3o2)c(OCCNC(=O)NCC(=O)O)c1 [Example 154]  1430 nM
21. O=C(O)[C@H]1CCCN1CCOc1ccccc1-c1cc(=O)c2cccc(Cl)c2o1 [Example 030, (2R)-1-[2-[2-(8-chloro-4-oxo-chromen-2-yl)phenoxy]ethyl]pyrrolidine-2-carboxylic acid]  1330 nM
22. CCOC(=O)NCCOc1cc(Br)ccc1-c1cc(=O)c2cccc(Cl)c2o1 [Example 106]  1100 nM
23. C[C@@H]1CN(CCOc2cc(Br)ccc2-c2cc(=O)c3cccc(Cl)c3o2)C[C@H]1C(=O)O [Example 024, (3S,4S)-1-[2-[5-bromo-2-(8-chloro-4-oxo-chromen-2-yl)phenoxy]ethyl]-4-methyl-pyrrolidine-3-carboxylic acid]  1040 nM
24. CS(=O)(=O)NC(=O)[C@H]1CCN(CCOc2cc(C(F)(F)F)ccc2-c2cc(=O)c3cccc(Cl)c3o2)C1 [Example 071, (3S)-1-[2-[2-(8-chloro-4-oxo-chromen-2-yl)-5-(trifluoromethyl)phenoxy]ethyl]-N-methylsulfonyl-pyrrolidine-3-carboxamide]  1030 nM
25. CS(=O)(=O)NC(=O)C1CCCN1CCOc1cc(Br)ccc1-c1cc(=O)c2cccc(Cl)c2o1 (stereo not shown) [Example 074, 1-[2-[5-bromo-2-(8-chloro-4-oxo-chromen-2-yl)phenoxy]ethyl]-N-methylsulfonyl-pyrrolidine-2-carboxamide]  1030 nM
26. O=c1cc(-c2ccc(Br)cc2OCCN[C@H]2CC[C@@H](C(=O)O)CC2)oc2c(Cl)cccc12 [Example 055, cis-4-[2-[5-bromo-2-(8-chloro-4-oxo-chromen-2-yl)phenoxy]ethylamino]cyclohexanecarboxylic acid]  980 nM
27. COc1cc(OCCNC(=O)C(=O)O)c(-c2cc(=O)c3cccc(Cl)c3o2)cc1OC [Example 114]  870 nM
28. O=C(O)C(=O)NCCOc1cc(Br)ccc1-c1cc(=O)c2cccc(Cl)c2o1 [Example 113]  490 nM
29. Cc1ccc(-c2cc(=O)c3cccc(Cl)c3o2)c(O[C@H]2CCN(C(=O)C(=O)O)C2)c1 [Example 132]  350 nM
30. Cc1ccc(-c2cc(=O)c3cccc(Cl)c3o2)c(OCCN2CC(C(=O)O)C2)c1 [Example 054, 1-[2-[2-(8-chloro-4-oxo-chromen-2-yl)-5-methyl-phenoxy]ethyl]azetidine-3-carboxylic acid]  240 nM
31. Cc1ccc(-c2cc(=O)c3cccc(Cl)c3o2)c(OCCN2CCN(C)C2=O)c1 [Example 092, 1-[2-[2-(8-chloro-4-oxo-chromen-2-yl)-5-methyl-phenoxy]ethyl]-3-methyl-imidazolidin-2-one]  220 nM
32. O=C(O)C1CCN(CCOc2cc(Br)ccc2-c2cc(=O)c3cccc(Cl)c3o2)C1 (stereo not shown) [Example 021, 1-[2-[5-bromo-2-(8-chloro-4-oxo-chromen-2-yl)phenoxy]ethyl]pyrrolidine-3-carboxylic acid]  180 nM
33. Cc1ccc(-c2cc(=O)c3cccc(Cl)c3o2)c(OCCNC2CC(C(=O)O)C2)c1 (stereo not shown) [Example 053, 3-[2-[2-(8-chloro-4-oxo-chromen-2-yl)-5-methyl-phenoxy]ethylamino]cyclobutanecarboxylic acid]  100 nM
34. O=C(O)C(=O)N1CC(Oc2cc(C(F)(F)F)ccc2-c2cc(=O)c3cccc(Cl)c3o2)C1 [Example 127]  80 nM

Reference: US20220169639A1 (priority 2018, published 2022)
